# In publication PMC12914960, “Repurposing a detrimental antibody epitope as targeted therapeutics for sepsis and rheumatoid arthritis” (Military Medical Research, 2026):
# “And” between values parts separate entries of the source, which are not always exact repeats. Equal values may be shown once. Where a SMILES comes first, the peptide text is derived from it.
# Columns and labels:
# Assay type in all cases: cell-based
# [1] = system: pCTS-L secretion from human PBMCs; assay: HMGB1-induced pCTS-L secretion by PBMCs, Western blotting; settings: 16 h; for pCTS-L release: densitometry
# Procedure: (§1) Human blood was purchased from the New York Blood Center (Long Island City, NY, USA), and PBMCs were isolated via density gradient centrifugation through Ficoll (Ficoll-Paque PLUS) as previously described. PBMCs were cultured in RPMI-1640 supplemented with 10% human serum, 2 mmol/L L-glutamine, 100 U/ml penicillin, and 100 µg/ml streptomycin (all from Invitrogen, Carlsbad, CA, USA). For experiments, PBMCs were stimulated with recombinant HMGB1 (0.5 or 2.0 µg/ml) for 16 h, either alone or in combination with P2-1 at 5.0 or 10.0 µg/ml. Cell-free supernatants were collected for analysis of cytokine/chemokine levels via cytokine antibody arrays, or pCTS-L levels via Western blotting analysis as previously described.
# Cell-conditioned medium from human PBMC cultures was collected and concentrated via Amicon Ultra Centrifugal Filters with a 10 kD molecular weight cutoff (Cat. #UFC801096, MilliporeSigma, Burlington, MA, USA). Equal volumes of conditioned medium, representing equivalent numbers of cells, were resolved on sodium dodecyl sulfate-polyacrylamide gels and transferred to polyvinylidene difluoride membranes. After being blocked with 5% nonfat milk in Tris-buffered saline with 0.1% Tween 20, the membranes were probed with a homemade primary monoclonal antibody against pCTS-L (e.g., mAb2, 1:1000) overnight as previously described. After washing, the membranes were incubated with a horseradish peroxidase-conjugated secondary antibody. The protein bands were visualized using enhanced chemiluminescence substrate (Pierce) and detected via a chemiluminescence imaging system (e.g., Bio-Rad ChemiDoc MP). The relative levels of specific proteins were determined using the UN-SCAN-IT gel analysis software version 7.1 (Silk Scientific Inc., Orem, UT, USA) and expressed in arbitrary units (AU). The experiments were performed in quadruplicate (n = 4 biological replicates).
# Fig. S9 Full Western blotting analysis of the effect of P2- 1 on HMGB1- induced pCTS-L release in human PBMCs. Human PBMCs were stimulated with HMGB1 (0.5 µ g/ml) in th e abs ence or p resen ce of P2-1 (5.0 or 10.0 µg/ml) for 16 h, and the levels of pCTS-L in the cell-conditioned medium were determined by Western blotting, with sample loading normalized by volume of culture medium conditioned by an equivalent number of cells. Representative Western blotting images showing the dose-dependent […]
# human PBMCs. HMGB1 high mobility group box 1, pCTS -L procathepisn L , PBMCs PBMCs peripheral […]
# (1 picture or pasted object on this page, not shown here)
# [2] = system: Differentiated human macrophages; assay: HMGB1-induced macrophage death, LDH release; parameters: key: % of maximal LDH release (2% Triton X-100); settings: 16 h, percentage of maximal release (2% Triton X-100) per method, individual replicates
# Procedure: Human macrophage differentiation and treatment
# Human PBMCs were differentiated into macrophages by culturing in human macrophage colony-stimulating factor (M-CSF, 20 ng/ml) for 5 – 6 d. Differentiated macrophages were maintained in Dulbecco’s modified Eagle’s medium supplemented with 1% penicillin/streptomycin and 10% human serum. Upon reaching 70 – 80% conflu ence, adh erent cells were wash ed and switched to Opti-MEM I before stimulation with recombinant HMGB1 (0.5 µg/ml) with or without P2- 1 (5.0 or 10 µg/ml) for 16 […]
# Cell viability was assessed via the tryp an blue excl usion and lactat e dehyd ro genase (LDH) release method as previously described . For trypan blue exclusion, random phase-contr ast images were captur ed , and the percentage of nonviable, trypan blue-stained cells was calculated. LDH release in the culture medium was quantified with an LDH Ass ay Kit (Cat. #L7572, Pointe Scientific Inc., Canton, MI, USA) according to the manufacturer ’s instructions. Optical density was measured at 340 nm, and LDH content was expressed as a per centag e of maximal release in the presence of 2% Triton X-100. The experiments were performed 5 – 7 times ( n= 5 –7 biological replicates). […]
# human PBMCs = assay: HMGB1-induced cytokine/chemokine secretion by PBMCs, cytokine antibody arrays; settings: P2-1 5.0 or 10.0 µg/ml, 16 h
# Procedure: as §1
# The levels of cytokines and chemokines in mouse serum and joint tissue lysates, or human PBMC culture supernatants, were determined via murine or human cytokine antibody arrays (e.g., Cat. #AAM-CYM-3–8 or Cat. #AAH-CYT-3–8, RayBiotech Inc., Norcross, GA, USA) as previously described. For the sepsis model, blood samples were collected from the mice (n = 4) at 24 h post-CLP. […] Arrays were performed according to the manufacturer’s protocol, followed by chemiluminescent detection and densitometric quantification as previously described. […]
smiles,measurement,setting,value
CCCC[C@H](NC(=O)[C@H](Cc1c[nH]cn1)NC(=O)[C@@H](NC(=O)[C@H](CCCCN)NC(=O)[C@@H](N)[C@@H](C)O)C(C)C)C(=O)N[C@@H](CCCCN)C(=O)N[C@@H](CO)C(=O)N[C@@H](Cc1ccccc1)C(=O)N[C@@H](CC(C)C)C(=O)N[C@@H](C)C(=O)N[C@@H](Cc1ccccc1)C(=O)N[C@@H](CCC(N)=O)C(=O)N[C@H](C(=O)N[C@@H](CCCCN)C(=O)N[C@H](C(=O)O)[C@@H](C)O)[C@@H](C)O [P2-1] (HELM PEPTIDE1{T.K.V.H.[Nle].K.S.F.L.A.F.Q.T.K.T}$$$$V2.0; N-terminus and C-terminus assumed),pCTS-L release,"[1]; HMGB1 (0.5) + P2-1 5.0 μg/ml, individual replicates",1.2 and 4 and 3.2 and 2.1
same,pCTS-L release,"[1]; HMGB1 (0.5) + P2-1 10.0 μg/ml, individual replicates",0.4 and 0.7 and 1.9 and 1.1
same,pCTS-L release,"[1]; HMGB1 (2.0) + P2-1 5.0 μg/ml, single value",4.8
same,pCTS-L release,"[1]; HMGB1 (2.0) + P2-1 10.0 μg/ml, single value",1.6
same,"HMGB1-induced pCTS-L secretion, in words",[1]; P2-1 5.0 or 10.0 µg/ml,striking and dose-dependent suppression of HMGB1-induced pCTS-L secretion
same,LDH release,[2]; HMGB1 0.5 µg/ml + P2-1 5.0 μg/ml,2.7008 and 6.752 and 2.4476 and 4.642 and 0.844 and 5.6548
same,LDH release,[2]; HMGB1 0.5 µg/ml + P2-1 10.0 μg/ml,1.0128 and 2.532 and 6.752 and 3.376 and 5.4016 and 2.6164 and 1.1816
same,"HMGB1-induced cytokine/chemokine secretion, in words",human PBMCs,did not broadly inhibit the secretion of these HMGB1-induced cytokines and chemokines
